pIC50: −log10 of the molar value. Like-named read-outs stand apart in the source and are kept apart here.
Molecular target: T1, TBK1 (Homo sapiens, UniProt Q9UHD2)
T1 sequence (Q9UHD2 1-729): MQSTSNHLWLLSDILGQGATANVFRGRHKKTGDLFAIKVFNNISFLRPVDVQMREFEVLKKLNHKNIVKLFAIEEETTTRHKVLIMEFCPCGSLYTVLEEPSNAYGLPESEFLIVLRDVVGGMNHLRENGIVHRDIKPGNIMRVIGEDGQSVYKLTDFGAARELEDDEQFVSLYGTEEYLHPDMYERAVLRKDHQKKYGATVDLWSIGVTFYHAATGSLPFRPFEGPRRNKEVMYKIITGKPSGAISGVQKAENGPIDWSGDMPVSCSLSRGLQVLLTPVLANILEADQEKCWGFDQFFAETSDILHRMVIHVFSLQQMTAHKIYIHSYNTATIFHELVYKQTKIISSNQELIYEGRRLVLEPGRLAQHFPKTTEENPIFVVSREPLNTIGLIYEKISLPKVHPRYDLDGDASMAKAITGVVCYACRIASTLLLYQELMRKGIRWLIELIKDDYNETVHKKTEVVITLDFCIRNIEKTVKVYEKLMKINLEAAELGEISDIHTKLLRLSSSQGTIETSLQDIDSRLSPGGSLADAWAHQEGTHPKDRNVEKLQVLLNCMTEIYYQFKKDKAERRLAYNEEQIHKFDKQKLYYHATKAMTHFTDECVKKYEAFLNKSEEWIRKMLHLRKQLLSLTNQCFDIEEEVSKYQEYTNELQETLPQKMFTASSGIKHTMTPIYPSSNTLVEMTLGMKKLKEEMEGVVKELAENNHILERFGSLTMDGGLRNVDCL
Test: FRET-based Z'-LYTE TBK1 enzymatic assay
Format: biochemical
Design: purchased Thermo Scientific A31513
Conditions: for inhibition at 0.1 µM / inhibition at 1 µM / inhibition at 10 µM / inhibition at 0.01 µM / inhibition at 0.0001 µM / inhibition at 0.001 µM / pIC50: 100 µM ATP; for inhibition at 0.0001 µM: compound at 0.1 nM, read-out: TBK1 inhibition (%) 0.1 nM; for inhibition at 0.001 µM: compound at 1 nM, read-out: TBK1 inhibition (%) 1 nM; for pIC50: mean of two separate experiments

[1] = read-out: TBK1 inhibition (%) 100 nM, compound at 100 nM
[2] = read-out: TBK1 inhibition (%) 1 μM, compound at 1 μM
[3] = read-out: TBK1 inhibition (%) 10 μM, compound at 10 μM
[4] = read-out: TBK1 inhibition (%) 10 nM, compound at 10 nM
[5] = compound at 10 nM, read-out: TBK1 inhibition (%) 10 nM
[6] = compound at 100 nM, read-out: TBK1 inhibition (%) 100 nM
[7] = compound at 1 μM, read-out: TBK1 inhibition (%) 1 μM
[8] = compound at 10 μM, read-out: TBK1 inhibition (%) 10 μM

Structure (SMILES)	inhibition at 0.1 µM [1] [%]	inhibition at 1 µM [2] [%]	inhibition at 10 µM [3] [%]	inhibition at 0.01 µM [5] [%]	inhibition at 0.1 µM [6] [%]	inhibition at 1 µM [7] [%]	pIC50	also measured
CN1CCN(Cc2ccc(-c3cnc4[nH]nc(NCc5ccccc5)c4c3)cc2)CC1 [Compound 12a]	-14.5	-13.6	-8	–	–	–	–	–
CN1CCN(Cc2ccc(-c3cnc4[nH]nc(NCCc5ccccc5)c4c3)cc2)CC1 [Compound 12b]	7.3	5.9	3.2	–	–	–	–	–
CN1CCN(Cc2ccc(-c3cnc4[nH]nc(NCc5ccc(Cl)cc5Cl)c4c3)cc2)CC1 [Compound 12c]	-30.1	-6.7	-2	–	–	–	–	–
CN1CCN(Cc2ccc(-c3cnc4[nH]nc(NCCCc5ccccc5)c4c3)cc2)CC1 [Compound 12d]	-5.6	-5.8	-4.7	–	–	–	–	–
CN1CCN(Cc2ccc(-c3cnc4[nH]nc(NCCc5ccc(F)cc5)c4c3)cc2)CC1 [Compound 12e]	-1.4	-2.4	-5	–	–	–	–	–
COc1ccc(CCNc2n[nH]c3ncc(-c4ccc(CN5CCN(C)CC5)cc4)cc23)cc1 [Compound 12f]	-9.7	-7.9	-0.5	–	–	–	–	–
CN1CCN(Cc2ccc(-c3cnc4[nH]nc(NCCCN5CCOCC5)c4c3)cc2)CC1 [Compound 12h]	-7.8	-4.3	-5.2	–	–	–	–	–
CN1CCN(Cc2ccc(-c3cnc4[nH]nc(NCCCn5ccnc5)c4c3)cc2)CC1 [Compound 12i]	15.2	19.9	7.1	–	–	–	–	inhibition at 0.01 µM [4]: 16.2%
CN1CCN(Cc2ccc(-c3cnc4[nH]nc(-c5ccc6[nH]ccc6c5)c4c3)cc2)CC1 [Compound 15a]	13.2	36.5	83	–	–	–	–	–
CC(C)n1c(C(F)(F)F)nc2c(F)cc(-c3n[nH]c4ncc(-c5cccc(S(N)(=O)=O)c5)cc34)cc21 [Compound 15aa]	36.8	48.3	–	–	–	–	–	inhibition at 0.01 µM [4]: 14.1%
Cc1nc2c(F)cc(-c3c[nH]c4ncc(-c5ccc(S(N)(=O)=O)cc5)cc34)cc2n1C(C)C [Compound 15ab]	–	–	–	70.9	72.9	90.3	8.44	fold reduced activity against TBK1 compared to 15t (compared to 15t): 8 fold; inhibition at 0.0001 µM: 43.1%; inhibition at 0.001 µM: 60.1%
CN1CCN(Cc2ccc(-c3cnc4[nH]nc(-c5cccc(N)c5)c4c3)cc2)CC1 [Compound 15b]	11	14.3	47.9	–	–	–	–	–
CN1CCN(Cc2ccc(-c3cnc4[nH]nc(-c5ccc(N)cc5)c4c3)cc2)CC1 [Compound 15c]	38.3	47.8	86.8	–	–	–	–	–
CN1CCN(Cc2ccc(-c3cnc4[nH]nc(-c5ccc6[nH]cnc6c5)c4c3)cc2)CC1 [Compound 15d]	–	–	–	18	52.5	84.1	6.88	inhibition at 10 µM [8]: 102%
CC(C)n1cnc2ccc(-c3n[nH]c4ncc(-c5ccc(CN6CCN(C)CC6)cc5)cc34)cc21 [Compound 15e]	–	–	–	14.3	62.8	104	7.12	inhibition at 10 µM [8]: 108%
CN1CCN(Cc2ccc(-c3cnc4[nH]nc(-c5cccc6cnccc56)c4c3)cc2)CC1 [Compound 15f]	–	–	–	–	28.7	81.4	6.54	inhibition at 10 µM [8]: 101%
CC(C)n1cnc2ccc(-c3n[nH]c4ncc(-c5ccc(C(=O)N6CCN(C)CC6)cc5)cc34)cc21 [Compound 15g]	–	–	–	29.9	91.7	108	7.59	inhibition at 0.001 µM: 8.6%; inhibition at 10 µM [8]: 108%

Structure (SMILES)	inhibition at 0.1 µM [1] [%]	inhibition at 1 µM [2] [%]	inhibition at 10 µM [3] [%]	inhibition at 0.01 µM [5] [%]	inhibition at 0.1 µM [6] [%]	inhibition at 1 µM [7] [%]	pIC50	also measured
CC(C)n1cnc2ccc(-c3n[nH]c4ncc(-c5ccc(C(N)=O)cc5)cc34)cc21 [Compound 15h]	–	–	–	29.1	75.6	104	7.23	inhibition at 0.001 µM: 24%; inhibition at 10 µM [8]: 103%
CC(C)n1cnc2ccc(-c3n[nH]c4ncc(-c5ccc(S(N)(=O)=O)cc5)cc34)cc21 [Compound 15i]	–	–	–	62.3	75.4	105	8.07	fold lower TBK1 IC50 than compound 15e (compared with 15e): ~10 times; inhibition at 0.001 µM: 47.3%; inhibition at 10 µM [8]: 111%
CC(=O)Nc1cc(-c2cnc3[nH]nc(-c4ccc5ncn(C(C)C)c5c4)c3c2)ccn1 [Compound 15j]	–	–	–	31.5	67.1	104	7.17	inhibition at 0.001 µM: 14.2%; inhibition at 10 µM [8]: 103%
COC(=O)c1cccc(-c2cnc3[nH]nc(-c4ccc5ncn(C(C)C)c5c4)c3c2)c1 [Compound 15k]	–	–	–	19.5	45	82.6	6.54	inhibition at 10 µM [8]: 106%
NS(=O)(=O)c1ccc(-c2cnc3[nH]nc(-c4cnn(C5CCOCC5)c4)c3c2)cc1 [Compound 15l]	-7.2	-0.6	21.9	–	–	–	–	–
NS(=O)(=O)c1ccc(-c2cnc3[nH]nc(-c4ccc(N5CCOCC5)cc4)c3c2)cc1 [Compound 15m]	-8.9	-6	-11	–	–	–	–	–
NS(=O)(=O)c1ccc(-c2cnc3[nH]nc(-c4cnn(CCN5CCOCC5)c4)c3c2)cc1 [Compound 15n]	-8.9	-15	-12.5	–	–	–	–	–
NS(=O)(=O)c1ccc(-c2cnc3[nH]nc(-c4cnn(CCO)c4)c3c2)cc1 [Compound 15o]	-2.7	-7.4	23.3	–	–	–	–	–
Cc1nc2c(F)cc(-c3n[nH]c4ncc(-c5ccc(S(N)(=O)=O)cc5)cc34)cc2o1 [Compound 15p]	30.6	37.1	41.1	–	–	–	–	inhibition at 0.01 µM [4]: 32%
NS(=O)(=O)c1ccc(-c2cnc3[nH]nc(-c4cc(F)c5cn[nH]c5c4)c3c2)cc1 [Compound 15q]	12.7	25.5	83.9	–	–	–	–	inhibition at 0.01 µM [4]: 4.5%
Cc1nc2cc(-c3n[nH]c4ncc(-c5ccc(S(N)(=O)=O)cc5)cc34)cc(F)c2o1 [Compound 15r]	10.8	5.7	56.8	–	–	–	–	inhibition at 0.01 µM [4]: -2.6%
Cc1nc2ccc(-c3n[nH]c4ncc(-c5ccc(S(N)(=O)=O)cc5)cc34)cc2n1C(C)C [Compound 15s]	–	–	–	68.6	76.9	97.2	8.21	inhibition at 0.001 µM: 45.5%
Cc1nc2c(F)cc(-c3n[nH]c4ncc(-c5ccc(S(N)(=O)=O)cc5)cc34)cc2n1C(C)C [Compound 15t]	–	–	–	78	79.5	99.1	9.10	fold increase of TBK1 activity compared with compound 15i (compared with 15i): 10 times; inhibition at 0.0001 µM: 43.1%; inhibition at 0.001 µM: 61.6%
CCn1cnc2ccc(-c3n[nH]c4ncc(-c5ccc(S(N)(=O)=O)cc5)cc34)cc21 [Compound 15u]	–	–	–	30	78.1	89.6	7.48	inhibition at 0.0001 µM: 12.1%; inhibition at 0.001 µM: 25.1%
Cc1nc2c(F)cc(-c3n[nH]c4ncc(-c5ccc(S(N)(=O)=O)cc5)cc34)cc2n1C1CC1 [Compound 15v]	–	–	–	49.7	70.3	87.4	7.51	inhibition at 0.0001 µM: 37.7%; inhibition at 0.001 µM: 42.5%
CC(C)n1c(C(F)(F)F)nc2c(F)cc(-c3n[nH]c4ncc(-c5ccc(S(N)(=O)=O)cc5)cc34)cc21 [Compound 15w]	27.1	–	–	–	–	–	–	TBK1 inhibitory activity (in words): almost lost TBK1 activity; inhibition at 0.01 µM [4]: 10.7%
Cc1nc2c(F)cc(-c3n[nH]c4ncc(-c5ccc(CN6CCN(C)CC6)cc5)cc34)cc2n1C(C)C [Compound 15x]	–	–	–	34.1	80.5	75.8	7.66	inhibition at 0.001 µM: 18.6%

Reference: article PMC9132415, “Identification of 1H-pyrazolo[3,4-b]pyridine derivatives as novel and potent TBK1 inhibitors: design, synthesis, biological evaluation, and molecular docking study” (Journal of Enzyme Inhibition and Medicinal Chemistry, 2022)
